Here are results for one molecule from patent US10968214B2, “KRas G12C inhibitors” (Eli Lilly and Company, priority 2018, dated 2021).

The test system of data set [1] is SW837 xenograft. In words: Anti-tumor growth activity, SW837 colorectal xenograft. It is filed as in vivo. The note with it: for Tumor Growth Inhibition (%) or Regression (−%): 28 Day, negative = regression.
Data set [2] deals with EL3187. Briefly: CellTiterGlo Cell Proliferation Assay, EL3187. The conditions noted are these: KRas G12C, Lung, 96 hr. It is filed as cell-based. As to the method:
(§1) A panel of tumor cell lines harboring KRas G12C or other KRas mutations are collected (Table 6). All cell lines are from ATCC or other sources indicated.
(§2) Typically cells are cultured in RPMI1640 or Dulbecco's modified Eagle's medium (DMEM, GIBCO) supplemented with 10% FBS (GIBCO, Invitrogen). For 2D culture cells (4×10^3/well) maintained in growth medium described above, are plated onto 96 well tissue culture plates Corning® Cat. 3603) a day before the treatment. For 3D culture 8000 cells/well are seeded onto 96 well ultra-low attachment tissue culture plates (Corning, #3474). The cells are treated compound for 96 hr, and then are analyzed for viability using the CellTiterGlo® Luminescent Cell Viability Assay® (Promega #G7572 for 2D and Promega #G9683 for 3D cultures) according to manufacturer's instructions and an EnVision™ plate reader. Nonlinear regression and sigmoidal dose-response curves are used to calculate the half maximal inhibitory concentration (IC50) with GraphPad Prism 4® software.

For data set [3], the system named is H2122 xenograft. In words: Anti-tumor growth activity, lung cancer H2122 xenograft mouse model. The conditions noted are these: for Tumor Growth Inhibition (%) or Regression (−%): H2122 Lung. It is filed as in vivo. As to the method:
To evaluate in vivo target inhibition and anti-tumor efficacy of a compound, Human lung cancer cells, H358 or H2122 are implanted into nude mice xenograft tumor models. Either H358 or H2122 cells (10×10^6 in a 1:1 Matrigel® mix, 0.2 mL total volume) are implanted by subcutaneous injection in hind leg of nude female mice (Harlan Laboratories). A total of 5 mice each group are used for efficacy study, and a total of 3-4 mice each group are used for target engagement and PD study. Treatment is initiated with oral administration (gavage) of a test compound or vehicle (20% Captisol®, 25 mM phosphate, pH 2.0 in 0.2 mL volume when the tumor size reaches approximately […]. Tumor growth and body weight are monitored over time to evaluate efficacy and signs of toxicity. Bidimensional measurements of tumors are performed twice a week and tumor volumes are calculated based on mid-axis length and mid-axis width. Tumor volume data are transformed to a log scale to equalize variance across time and treatment groups. The log volume data are analyzed with a two-way repeated measures analysis of variance by time and treatment using the mixed procedures in SAS software (version 8.2). The correlation model for the repeated measures is spatial power. Treated groups are compared to the control group at each time point. The mixed procedure is also used separately for each treatment group to calculate adjusted means and standard errors at each time point. Both analyses account for the autocorrelation within each animal. The adjusted means and standard errors are plotted for each treatment group versus time.
H2122 lung tumor cells (10×10^6) are implanted by subcutaneous injection in hind leg of nude female mice (Taconic Biosciences). A total of 5 mice each group are used for efficacy study.

In data set [4] the test system is SW837. In words: CellTiterGlo Cell Proliferation Assay, SW837. The note with it: Homo sapiens, KRas G12C, Rectum, 96 hr. It is filed as cell-based. As to the method: as §1, §2
Background: Cellular ATP, detected with luciferase, serves as a proxy for viable cell number.

Data set [5] deals with H2122. Briefly: Combination 4 day growth assay (Cell TiterGlo), H2122. The format is cell-based. The note with it: Homo sapiens, NCI-H2122, 96 h, single treatment, read-out: Absolute IC50. As to the method:
Cell lines for this study are obtained from ATCC and grown under ATCC recommended conditions, except for LXFA-983L, which is obtained from Oncotest/Charles Rivers Laboratories, Wilmington, Mass. and D122-96, which is obtained from L. Eisenbach (Weizman Institute of Science, Rehovot, Israel)—both grown under recommended conditions. […] The proliferation assay is performed as a 4 day growth assay using Cell TiterGlo® as the readout. Briefly, cells are plated in 96-well cell culture plates and allowed to adhere overnight at 37° C. The following day, cells are treated with compounds, either single treatments or combination treatments. First, the testing compounds are serially diluted in DMSO, followed by dilution into media as a 5× concentration with 1% DMSO, and finally added to cells in media to dilute to 1×. The cells are incubated at 37° C. for 4 more days. At the end of the incubation period, Cell TiterGlo® reagent is mixed and added to the wells. After 10 minutes, the luminescence is read by a Perkin Elmer Envision instrument. Absolute IC50 values generated by a 4-parameter logistics model for the single and combination treatments are generated, followed by combination indexes for each combination treatment and cell line. The combination IC50 values are adjusted based on the total concentration of each compound when added together. […] The combination index (CI) measures the degree to which the potency of a combination therapy differs from the expected-if-additive potency and is based on the Loewe definition of additivity.
[formula] Where • CAy and CBy are the concentrations of therapies A and B that produce an effect, y, when given in combination • ICAy and ICBy are the concentrations of A and B that produce an effect, y, when given individually The biological interpretation of the combination index is as follows: synergistic if the combination index <0.5, additive if the combination index is between 0.5 and 2, and antagonistic if the combination index is >2.

Data set [6] concerns Calu-6. Briefly: CellTiterGlo Cell Proliferation Assay, Calu-6. The format is cell-based. The conditions noted are these: Homo sapiens, KRas Q61K, lung, 96 hr. As to the method:
as §1, §2

The mark [7] stands for this setting: read-out: IC50 (μM) in 2 D cell proliferation.
Where [8] appears, read: read-out: IC50 (μM) in 3 D spheroid cell proliferation.

Values joined by “and” are separate entries in the source; they are usually repeats but may differ in a detail not shown here. Equal entries are not always repeated. Where two headings read alike, the source gives them in different places.

For the molecule `C=CC(=O)N1CCN(c2ncnc3c(F)c(-c4ccc(F)c5sc(N)nc45)c(Cl)cc23)CC1` [Example 1, 1-{4-[7-(2-Amino-7-fluoro-1,3-benzothiazol-4-yl)-6-chloro-8-fluoroquinazolin-4-yl]piperazin-1-yl}prop-2-en-1-one], the “Tumor Growth Inhibition (%) or Regression (−%)” value in data set [1] (15 mg/kg BID) is −17%; in data set [1] (30 mg/kg BID), −46.1%; in data set [1] (30 mg/kg QD), −10.8%; in data set [3] (30 mg/kg BID, 28 Day, oral, negative = regression) it was 72.97%; in data set [3] (30 mg/kg QD, 28 Day, oral, negative = regression, 30 mg/kg) it was 77.17% and 77.2%; in data set [3] (100 mg/kg QD, 28 Day, oral, negative = regression, 100 mg/kg) it was 91.06% and 91.1%. Further, the “Tumor Growth Inhibition (%) or Regression (−%)” value in data set [3] (Example 1 30 mg/kg QDx28) is 77.2; in data set [3] (Example 1 100 mg/kg QDx28), −1.4. Further, the “In Vivo Anti-Tumor Activities” value in data set [1] (Example 1 30 mg/kg QDx28) is listed as −51.8. Also, the IC50 in data set [2] (setting [7]) was found to be 0.003 µM; in data set [2] (setting [8]), 0.013 µM; in data set [4] (setting [7]), 0.169 µM; in data set [4] (setting [8]), 0.126 µM; in data set [5], 2.87 µM; in data set [6] (setting [7]), 12.1 µM. The IC50 in data set [6] (setting [8]) amounted to 19.5 µM. The “animal body weight loss” value in data set [3] (H2122 xenograft mice, 30 mg/kg once or twice daily or 100 mg/kg once daily for 28 days, oral) is on record as “No significant animal body weight loss was observed”.
